The target of assay [1] is KAT7+JADE1+EAF6+ING5 4 protein complex (Homo sapiens (Human), UniProt O95251). Briefly: KAT7 JADE1 assay (SAMDI-MS acetylation of H3 1-21 peptide). Type of assay: biochemical. The settings on record: replicate number in parentheses.
For another assay, the target named is KAT6A Full length enzyme (Homo sapiens (Human), UniProt Q92794). Kind of assay: KAT6A assay (SAMDI-MS acetylation of H3 1-21 peptide). The format is biochemical. As to conditions: replicate number in parentheses.
Sequence of KAT6A Full length enzyme (Q92794 other isoform, or with tags, fused parts or gaps): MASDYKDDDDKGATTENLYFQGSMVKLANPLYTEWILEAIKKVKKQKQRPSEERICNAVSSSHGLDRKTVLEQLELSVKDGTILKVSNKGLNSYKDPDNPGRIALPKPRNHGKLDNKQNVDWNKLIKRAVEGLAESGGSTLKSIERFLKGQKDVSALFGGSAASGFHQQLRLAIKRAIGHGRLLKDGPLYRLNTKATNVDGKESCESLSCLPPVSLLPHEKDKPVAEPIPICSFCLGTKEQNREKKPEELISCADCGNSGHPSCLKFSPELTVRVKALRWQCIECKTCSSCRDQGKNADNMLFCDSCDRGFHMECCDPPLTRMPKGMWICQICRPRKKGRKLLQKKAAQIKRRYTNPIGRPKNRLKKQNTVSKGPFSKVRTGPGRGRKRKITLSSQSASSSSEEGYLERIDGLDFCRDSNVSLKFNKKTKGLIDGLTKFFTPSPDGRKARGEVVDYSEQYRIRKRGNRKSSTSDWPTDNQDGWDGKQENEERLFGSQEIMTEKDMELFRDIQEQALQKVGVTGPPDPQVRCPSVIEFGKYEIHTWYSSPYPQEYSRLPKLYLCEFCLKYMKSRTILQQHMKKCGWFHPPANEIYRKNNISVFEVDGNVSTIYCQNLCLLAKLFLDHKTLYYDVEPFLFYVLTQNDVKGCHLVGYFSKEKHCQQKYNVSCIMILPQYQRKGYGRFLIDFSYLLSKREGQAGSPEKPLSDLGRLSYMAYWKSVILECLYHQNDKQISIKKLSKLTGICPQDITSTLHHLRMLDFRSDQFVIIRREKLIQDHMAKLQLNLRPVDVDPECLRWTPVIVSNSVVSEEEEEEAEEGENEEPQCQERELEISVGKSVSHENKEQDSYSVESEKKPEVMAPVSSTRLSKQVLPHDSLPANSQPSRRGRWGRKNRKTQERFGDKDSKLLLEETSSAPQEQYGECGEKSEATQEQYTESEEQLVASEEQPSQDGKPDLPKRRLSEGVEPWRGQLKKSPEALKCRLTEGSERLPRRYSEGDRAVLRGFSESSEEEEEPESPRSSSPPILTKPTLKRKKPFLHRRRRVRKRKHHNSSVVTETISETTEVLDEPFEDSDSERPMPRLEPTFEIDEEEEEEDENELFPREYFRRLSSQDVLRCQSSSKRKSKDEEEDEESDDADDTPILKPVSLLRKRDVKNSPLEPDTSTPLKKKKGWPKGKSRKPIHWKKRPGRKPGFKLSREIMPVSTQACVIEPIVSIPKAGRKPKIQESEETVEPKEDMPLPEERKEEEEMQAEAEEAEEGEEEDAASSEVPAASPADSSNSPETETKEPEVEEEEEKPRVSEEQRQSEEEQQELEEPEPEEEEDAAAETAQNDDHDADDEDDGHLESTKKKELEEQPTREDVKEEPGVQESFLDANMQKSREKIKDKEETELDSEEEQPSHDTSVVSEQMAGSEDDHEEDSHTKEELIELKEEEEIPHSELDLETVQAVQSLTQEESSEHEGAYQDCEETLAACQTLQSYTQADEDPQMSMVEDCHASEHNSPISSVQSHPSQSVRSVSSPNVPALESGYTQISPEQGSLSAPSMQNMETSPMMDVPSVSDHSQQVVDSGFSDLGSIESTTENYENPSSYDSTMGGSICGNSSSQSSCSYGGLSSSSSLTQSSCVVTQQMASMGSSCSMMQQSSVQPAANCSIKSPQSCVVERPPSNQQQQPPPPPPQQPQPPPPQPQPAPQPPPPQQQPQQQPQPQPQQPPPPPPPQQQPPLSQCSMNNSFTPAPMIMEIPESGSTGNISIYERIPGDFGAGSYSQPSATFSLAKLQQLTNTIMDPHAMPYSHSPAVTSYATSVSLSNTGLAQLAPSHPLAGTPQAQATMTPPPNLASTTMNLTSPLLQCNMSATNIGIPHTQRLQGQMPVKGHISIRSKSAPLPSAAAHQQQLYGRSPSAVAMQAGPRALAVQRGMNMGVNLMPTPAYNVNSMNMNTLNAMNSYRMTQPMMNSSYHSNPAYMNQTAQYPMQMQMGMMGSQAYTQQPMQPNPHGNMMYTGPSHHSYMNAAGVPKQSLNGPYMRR
The mark [2] stands for this setting: Morrison equation fit, read-out: KAT7 JADE1 Ki (nM) (replicate number).
Where [3] appears, read: Morrison equation fit, read-out: KAT6A Ki (nM) (replicate number).
[4] abbreviates: read-out: KAT7 JADE1 Ki (nM) (replicate).
Setting [5] is: read-out: KAT6A Ki (nM) (replicate).

The values that follow come from patent US20250122183A1 (Pfizer Inc., priority 2023, published 2025).

Where two headings read alike, the source gives them in different places.

For `COc1cc2c(NS(=O)(=O)c3c(OC)cc(C(C)N4CCOCC4)cc3OC)noc2cc1Nc1cc(C2CC2)n[nH]1` (single isomer, unassigned) [Example 208, N-{6-[(3-cyclopropyl-1H-pyrazol-5-yl)amino]-5-methoxy-1,2-benzoxazol-3-yl}-2,6-dimethoxy-4-[1-(morpholin-4-yl)ethyl]benzene-1-sulfonamide], the figures for the inhibitory constant (Ki) (in assay [1] (setting [2]); at KAT6A Full length enzyme (setting [3])) were 7.6 nM and 2.4 nM, respectively.

Take `COc1cccc(OC)c1S(=O)(=O)Nc1noc2cc(NC3CCCC3)cc(OC)c12` [Example 12, N-[6-(cyclopentylamino)-4-methoxy-1,2-benzoxazol-3-yl]-2,6-dimethoxybenzene-1-sulfonamide]: the Ki is above 2340 nM in assay [1] (setting [2]) and 25.6 nM at KAT6A Full length enzyme (setting [3]).

For the compound `COc1cc2c(NS(=O)(=O)c3c(OC)cc(-c4ncc(C#N)cn4)cc3OC)noc2cc1Nc1cc(C2CC2)n[nH]1` [Example 224, 4-(5-cyanopyrimidine-2-yl)-N-{6-[(3-cyclopropyl-1 H-pyrazol-5-yl)amino]-5-methoxy-1,2-benzoxazol-3-yl}-2,6-dimethoxybenzene-1-sulfonamide], the inhibition constant Ki in assay [1] (setting [2]) came to 7.2 nM; on KAT6A Full length enzyme (setting [3]) it was 1.5 nM.

Consider `COc1cc2c(NS(=O)(=O)c3c(OC)cc(C4CN(C)CC(F)(F)C4)cc3OC)noc2cc1Nc1cc(C2CC2)[nH]n1` (single isomer, unassigned) [Example 229, N-{6-[(5-cyclopropyl-1 H-pyrazol-3-yl)amino]-5-methoxy-1,2-benzoxazol-3-yl}-4-(5,5-difluoro-1-methylpiperidin-3-yl)-2,6-dimethoxybenzene-1-sulfonamide], for which the Ki in assay [1] (setting [2]) was found to be 6.4 nM; on KAT6A Full length enzyme (setting [3]) it was 1.7 nM.

As to `COc1cc2c(NS(=O)(=O)c3c(OC)cc(C4CCCN([C@@H]5CCOC5)C4)cc3OC)noc2cc1Nc1cc(C2CC2)n[nH]1` (single isomer, unassigned) [Example 159], the Ki in assay [1] (setting [2]) stood at 7 nM; at KAT6A Full length enzyme (setting [3]), 1.1 nM.

Regarding `COc1cc2c(NS(=O)(=O)c3c(OC)cc(C(=O)N4CCC(F)(F)C4)cc3OC)noc2cc1Nc1cc(C2CC2)n[nH]1` [Example 257, N-{6-[(3-cyclopropyl-1H-pyrazol-5-yl)amino]-5-methoxy-1,2-benzoxazol-3-yl}-4-(3,3-difluoropyrrolidine-1-carbonyl)-2,6-dimethoxybenzene-1-sulfonamide], the inhibition constant Ki in assay [1] (setting [4]) stood at 9.5 nM; at KAT6A Full length enzyme (setting [5]), 1.6 nM.

On to `COc1cc2c(NS(=O)(=O)c3c(OC)cc(C(=O)N4CCC[C@H](F)C4)cc3OC)noc2cc1Nc1cc(C2CC2)n[nH]1` [Example 261, N-{6-[(3-cyclopropyl-1H-pyrazol-5-yl)amino]-5-methoxy-1,2-benzoxazol-3-yl}-4-[(3S)-3-fluoropiperidine-1-carbonyl]-2,6-dimethoxybenzene-1-sulfonamide], for which the inhibition constant (Ki) in assay [1] (setting [4]) amounted to 6.7 nM; at KAT6A Full length enzyme (setting [5]), 1.1 nM.

As for `COc1cc2c(NS(=O)(=O)c3c(OC)cc(C(=O)N4CCC[C@@H](F)C4)cc3OC)noc2cc1Nc1cc(C2CC2)n[nH]1` [Example 260, N-{6-[(3-cyclopropyl-1H-pyrazol-5-yl)amino]-5-methoxy-1,2-benzoxazol-3-yl}-4-[(3R)-3-fluoropiperidine-1-carbonyl]-2,6-dimethoxybenzene-1-sulfonamide], the inhibition constant Ki turned out to be 6.7 nM in assay [1] (setting [4]) and 1 nM at KAT6A Full length enzyme (setting [5]).

As to `COc1cc2c(NS(=O)(=O)c3c(OC)cc(-c4cc5n(n4)CCOC5)cc3OC)noc2cc1Nc1cc(C2CC2)n[nH]1` [Example 220, N-{6-[(3-cyclopropyl-1H-pyrazol-5-yl)amino]-5-methoxy-1,2-benzoxazol-3-yl}-4-(6,7-dihydro-4H-pyrazolo[5,1-c][1,4]oxazin-2-yl)-2,6-dimethoxybenzene-1-sulfonamide], the inhibitory constant (Ki) in assay [1] (setting [2]) came out at 4 nM; at KAT6A Full length enzyme (setting [3]) it was 0.4 nM.

In the case of `COc1cc2c(NS(=O)(=O)c3c(OC)cc(CN4CCC(OC)CC4)cc3OC)noc2cc1Nc1cc(C2CC2)n[nH]1` [Example 194, N-{6-[(3-cyclopropyl-1 H-pyrazol-5-yl)amino]-5-methoxy-1,2-benzoxazol-3-yl}-2,6-dimethoxy-4-[(4-methoxypiperidin-1-yl)methyl]benzene-1-sulfonamide], the results for the Ki (in assay [1] (setting [2]); on KAT6A Full length enzyme (setting [3])) were 6.3 nM and 1.7 nM, respectively.

As for `COc1cc2c(NS(=O)(=O)c3c(OC)cc(C4CN(C)CCC4(F)F)cc3OC)noc2cc1Nc1cc(C2CC2)[nH]n1` (stereo not shown) [Example 177, N-{6-[(5-cyclopropyl-1 H-pyrazol-3-yl)amino]-5-methoxy-1,2-benzoxazol-3-yl}-4-[4,4-difluoro-1-(^2H3)methylpiperidin-3-yl]-2,6-dimethoxybenzene-1-sulfonamide], the Ki stood at 0.2 nM in assay [1] (setting [2]) and 0.1 nM on KAT6A Full length enzyme (setting [3]).

In the case of `CCc1cc(Nc2cc3onc(NS(=O)(=O)c4c(OC)cc(C5COCCO5)cc4OC)c3cc2OC)[nH]n1` (single isomer, unassigned) [Example 240, 4-(1,4-dioxan-2-yl)-N-{6-[(3-ethyl-1H-pyrazol-5-yl)amino]-5-methoxy-1,2-benzoxazol-3-yl}-2,6-dimethoxybenzene-1-sulfonamide], the values for the Ki (in assay [1] (setting [2]); on KAT6A Full length enzyme (setting [3])) were 7.5 nM and 1.2 nM, respectively.

`CCN1CCCC1c1cc(OC)c(S(=O)(=O)Nc2noc3cc(Nc4cc(C5CC5)[nH]n4)c(OC)cc23)c(OC)c1` (single isomer, unassigned) [Example 191, N-{6-[(5-cyclopropyl-1 H-pyrazol-3-yl)amino]-5-methoxy-1,2-benzoxazol-3-yl}-4-(1-ethylpyrrolidin-2-yl)-2,6-dimethoxybenzene-1-sulfonamide]: the inhibitory constant (Ki) in assay [1] (setting [2]) turned out to be 15.4 nM; at KAT6A Full length enzyme (setting [3]), 2.3 nM.

For the compound `COc1cc2c(NS(=O)(=O)c3c(OC)cc(CN4CC[C@@H](C(F)F)C4)cc3OC)noc2cc1Nc1cc(C2CC2)n[nH]1` [Example 204], the figures for the inhibition constant (Ki) (in assay [1] (setting [2]); at KAT6A Full length enzyme (setting [3])) were 4.9 nM and 1.1 nM, respectively.

Regarding `COc1cc2c(NS(=O)(=O)c3ccccc3)noc2cc1Nc1ccn(C)n1` [Example 21, N-{5-methoxy-6-[(1-methyl-1H-pyrazol-3-yl)amino]-1,2-benzoxazol-3-yl}benzenesulfonamide], the Ki in assay [1] (setting [2]) amounted to 625 nM; at KAT6A Full length enzyme (setting [3]), 7.9 nM.

On to `COc1cc2c(NS(=O)(=O)c3c(OC)cc(C4COCCN4C)cc3OC)noc2cc1Nc1cc(C2CC2)[nH]n1` (single isomer, unassigned) [Example 179, N-{6-[(5-cyclopropyl-1 H-pyrazol-3-yl)amino]-5-methoxy-1,2-benzoxazol-3-yl}-2,6-dimethoxy-4-(4-methylmorpholin-3-yl)benzene-1-sulfonamide], for which the Ki in assay [1] (setting [2]) is 8.6 nM; at KAT6A Full length enzyme (setting [3]), 1 nM.

As for `COc1cc2c(NS(=O)(=O)c3c(OC)cc(-c4ccn(C)n4)cc3OC)noc2cc1Nc1cc(C2CC2C)n[nH]1` (single isomer, unassigned) [Example 241, 2,6-dimethoxy-N-(5-methoxy-6-{[3-(2-methylcyclopropyl)-1H-pyrazol-5-yl]amino}-1,2-benzoxazol-3-yl)-4-(1-methyl-1H-pyrazol-3-yl)benzene-1-sulfonamide], the inhibition constant Ki in assay [1] (setting [2]) worked out at 75.3 nM; at KAT6A Full length enzyme (setting [3]), 2.6 nM.

Take `COc1cc2c(NS(=O)(=O)c3c(OC)cc(C4CCCOC4)cc3OC)noc2cc1Nc1cc(C2CC2)n[nH]1` (single isomer, unassigned) [Example 269, N-{6-[(3-cyclopropyl-1 H-pyrazol-5-yl)amino]-5-methoxy-1,2-benzoxazol-3-yl}-2,6-dimethoxy-4-(oxan-3-yl)benzene-1-sulfonamide]: the inhibition constant (Ki) in assay [1] (setting [4]) amounted to 6.1 nM; on KAT6A Full length enzyme (setting [5]), 0.8 nM.

As to `COc1cc2c(NS(=O)(=O)c3c(OC)cc(CN4CCC[C@H](C)C4)cc3OC)noc2cc1Nc1cc(C2CC2)n[nH]1` [Example 195, N-{6-[(3-cyclopropyl-1H-pyrazol-5-yl)amino]-5-methoxy-1,2-benzoxazol-3-yl}-2,6-dimethoxy-4-{[(3S)-3-methylpiperidin-1-yl]methyl}benzene-1-sulfonamide], the results for the inhibition constant Ki (in assay [1] (setting [2]); on KAT6A Full length enzyme (setting [3])) were 18.9 nM and 2.5 nM, respectively.

For `COc1cc2c(NS(=O)(=O)c3c(OC)cc(-c4cnc(N(C)C)cn4)cc3OC)noc2cc1Nc1cc(C2CC2)n[nH]1` [Example 217, N-{6-[(3-cyclopropyl-1H-pyrazol-5-yl)amino]-5-methoxy-1,2-benzoxazol-3-yl}-4-[5-(dimethylamino)pyrazin-2-yl]-2,6-dimethoxybenzene-1-sulfonamide], the inhibition constant (Ki) in assay [1] (setting [2]) worked out at 1.9 nM; on KAT6A Full length enzyme (setting [3]), 0.2 nM.

For the compound `COc1cc2c(NS(=O)(=O)c3c(OC)cc(C4CC(F)CCN4C)cc3OC)noc2cc1Nc1cc(C2CC2)[nH]n1` (stereo not drawn) [Example 193, N-{6-[(5-cyclopropyl-1 H-pyrazol-3-yl)amino]-5-methoxy-1,2-benzoxazol-3-yl}-4-trans(4-fluoro-1-methylpiperidin-2-yl)-2,6-dimethoxybenzene-1-sulfonamide], the Ki was found to be 12 nM in assay [1] (setting [2]) and 1.4 nM at KAT6A Full length enzyme (setting [3]).

As to `COc1cc2c(NS(=O)(=O)c3c(OC)cc(C(=O)N4CC(F)(F)C4)cc3OC)noc2cc1Nc1cc(C2CC2)n[nH]1` [Example 264, N-{6-[(3-cyclopropyl-1H-pyrazol-5-yl)amino]-5-methoxy-1,2-benzoxazol-3-yl}-4-(3,3-difluoroazetidine-1-carbonyl)-2,6-dimethoxybenzene-1-sulfonamide], the values for the inhibition constant (Ki) (in assay [1] (setting [4]); at KAT6A Full length enzyme (setting [5])) were 17.6 nM and 2.3 nM, respectively.

Consider `COc1cc2c(NS(=O)(=O)c3c(OC)cc(C4CN(C)CC(F)(F)C4)cc3OC)noc2cc1Nc1cc(C2CC2)[nH]n1` (single isomer, unassigned) [Example 228, N-{6-[(5-cyclopropyl-1 H-pyrazol-3-yl)amino]-5-methoxy-1,2-benzoxazol-3-yl}-4-(5,5-difluoro-1-methylpiperidin-3-yl)-2,6-dimethoxybenzene-1-sulfonamide], for which the inhibition constant (Ki) was 6.2 nM in assay [1] (setting [2]) and 0.8 nM on KAT6A Full length enzyme (setting [3]).

As a reminder, the Ki is a measure of affinity in units of concentration, obtained from inhibition or displacement.
